This note sets out measurements from patent publication US11377438B2, “2-amino-n-heteroaryl-nicotinamides as Nav1.8 inhibitors” (Merck Sharp & Dohme Corp., priority 2018, dated 2022).

Broadly, the IC50 is the point on the concentration scale where inhibition reaches its midpoint.

Chain of human Nav1.8 (Q9Y5Y9 whole entry): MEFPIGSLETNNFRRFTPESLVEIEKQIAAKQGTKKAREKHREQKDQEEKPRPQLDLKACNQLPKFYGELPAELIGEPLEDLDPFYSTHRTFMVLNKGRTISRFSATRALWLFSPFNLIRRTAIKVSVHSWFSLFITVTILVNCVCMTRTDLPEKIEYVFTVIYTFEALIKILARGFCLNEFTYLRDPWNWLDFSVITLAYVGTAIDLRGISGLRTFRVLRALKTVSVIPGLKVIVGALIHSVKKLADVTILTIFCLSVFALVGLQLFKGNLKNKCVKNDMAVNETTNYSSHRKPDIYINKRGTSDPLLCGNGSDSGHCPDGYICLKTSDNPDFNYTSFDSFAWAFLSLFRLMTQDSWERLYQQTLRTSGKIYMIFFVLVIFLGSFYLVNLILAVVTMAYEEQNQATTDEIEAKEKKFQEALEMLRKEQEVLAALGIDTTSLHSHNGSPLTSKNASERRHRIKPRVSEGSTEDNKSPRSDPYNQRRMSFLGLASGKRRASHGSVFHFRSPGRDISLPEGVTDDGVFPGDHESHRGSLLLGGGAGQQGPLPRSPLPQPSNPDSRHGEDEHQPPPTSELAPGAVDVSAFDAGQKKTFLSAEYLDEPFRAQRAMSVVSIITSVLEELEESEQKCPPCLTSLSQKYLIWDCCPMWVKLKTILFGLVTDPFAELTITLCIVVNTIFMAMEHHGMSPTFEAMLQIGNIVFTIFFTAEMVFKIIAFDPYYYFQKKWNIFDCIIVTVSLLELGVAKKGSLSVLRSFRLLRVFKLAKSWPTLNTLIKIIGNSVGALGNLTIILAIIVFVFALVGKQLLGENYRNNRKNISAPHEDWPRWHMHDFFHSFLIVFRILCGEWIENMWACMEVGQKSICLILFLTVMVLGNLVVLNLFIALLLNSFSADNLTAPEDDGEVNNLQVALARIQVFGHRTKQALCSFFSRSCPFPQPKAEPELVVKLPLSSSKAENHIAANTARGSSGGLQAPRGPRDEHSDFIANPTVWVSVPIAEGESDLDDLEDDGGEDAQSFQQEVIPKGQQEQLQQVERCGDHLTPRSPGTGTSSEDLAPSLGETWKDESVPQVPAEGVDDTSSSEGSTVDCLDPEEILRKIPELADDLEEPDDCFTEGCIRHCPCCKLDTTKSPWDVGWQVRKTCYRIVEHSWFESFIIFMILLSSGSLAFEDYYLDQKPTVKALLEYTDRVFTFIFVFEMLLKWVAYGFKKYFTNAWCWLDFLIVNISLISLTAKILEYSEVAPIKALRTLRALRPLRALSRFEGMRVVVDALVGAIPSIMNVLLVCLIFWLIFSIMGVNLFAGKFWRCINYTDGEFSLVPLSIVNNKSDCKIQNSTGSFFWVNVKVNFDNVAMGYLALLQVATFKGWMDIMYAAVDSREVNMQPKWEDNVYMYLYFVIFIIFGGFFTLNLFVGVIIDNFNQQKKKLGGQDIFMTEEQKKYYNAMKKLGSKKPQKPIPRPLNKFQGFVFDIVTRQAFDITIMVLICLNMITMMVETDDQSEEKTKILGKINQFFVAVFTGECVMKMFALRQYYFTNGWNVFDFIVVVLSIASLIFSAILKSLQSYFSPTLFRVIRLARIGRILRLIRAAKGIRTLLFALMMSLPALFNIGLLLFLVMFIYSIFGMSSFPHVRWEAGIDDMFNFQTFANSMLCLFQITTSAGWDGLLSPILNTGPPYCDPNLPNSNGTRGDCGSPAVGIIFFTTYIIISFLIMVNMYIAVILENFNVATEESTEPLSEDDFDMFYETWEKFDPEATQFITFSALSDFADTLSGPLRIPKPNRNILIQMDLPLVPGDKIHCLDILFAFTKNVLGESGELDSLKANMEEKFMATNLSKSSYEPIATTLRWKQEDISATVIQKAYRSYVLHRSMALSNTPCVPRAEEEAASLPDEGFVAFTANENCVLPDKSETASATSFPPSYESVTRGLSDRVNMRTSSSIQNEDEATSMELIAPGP

The test addresses human Nav1.8 (Homo sapiens (Human), UniProt Q9Y5Y9). Briefly: Nav1.8 Qube automated patch-clamp assay. The format is cell-based. The following applies: human Nav1.8 stably expressed in HEK 293 cells, whole-cell voltage clamp, room temperature; read-out: IC50 (nM) in the Nav 1.8 Qube Assay. Here is the method: Qube® Assay Experimental Procedure Compounds were tested on human Nav1.8 and Nav1.5 channels stably expressed in human embryo kidney (HEK) 293 cells. Sodium current measurements on Qube® were conducted as follows: automated 384-well patch-clamp assays on the Qube® platform (Sophion Biosciences) were used to measure the inhibition of sodium flow through human Nav1.8 and Nav1.5 channels. Whole-cell voltage-clamp recordings were performed in QChips® (Sophion Biosciences) at room temperature. Nav1.8 current measurements on Qube® were obtained as follows: Nav1.8 currents were elicited with a 10 second 1 Hertz (Hz) pulse train from a holding potential of −90 millivolts (mV), delivered to the cells once per minute in the control condition (DMSO only) and after compound addition. The 1 hertz pulse train stimulation consisted often test pulses to 10 millivolt (mV) for 20 milliseconds (ms), each of which was followed by a 980 millisecond repolarization to −67 millivolts. At the end of the 10 second pulse train stimulation, a 5 second hyperpolarization step to −100 millivolt (mV) was used to recover Nav1.8 from fast inactivation. The peak currents elicited by the 1st and 10th test pulses were used to determine IC50 values for resting inhibition and inactivated state inhibition. Nav1.5 current measurements on Qube® were obtained as follows: Nav1.5 currents were elicited with a 20 second 3 Hertz pulse train in the control condition (DMSO only) and after compound addition. The pulse train consisted of sixty 20 millisecond test pulses to 0 millivolt from a holding potential of −80 millivolt (mV). The average peak currents elicited by the last 3 test pulses were used to determine IC50 values for Nav1.5 inhibition.
The following buffers were used for the Qube® recordings: External buffer for Nav1.8 Qube® recording: 150 NaCl, 2 CaCl2, 5 KCl, 1 Mg Cl2, 10 HEPES, 12 Dextrose; External buffer for Qube® Nav1.5 recording: 120 N-Methyl-D-Glucamine, 40 NaCl, 1 KCl, 2.7 CaCl2), 5 HEPES, 0.5 MgCl2; and Internal buffer for Qube® recording: 120 CsF, 30 CsCl, 10 EGTA, 5 HEPES, 5 NaF, 2 MgCl2.
For all Qube® experiments offline analysis was used to determine percent inhibition as a function of drug concentration. IC50 values were determined by fitting to the Hill equation.
A general note: The patch-clamp technique gives a direct electrical read-out from membranes.
Take `Cc1cc(C(=O)Nc2ccnc(S(N)(=O)=O)c2)c(N2CCCC(F)(F)CC2)nc1C` [Example 19, 2-(4,4-difluoroazepan-1-yl)-5,6-dimethyl-N-(2-sulfamoylpyridin-4-yl)nicotinamide]: the half-maximal inhibitory concentration (IC50) stood at 1.6 nM.
The result for `NS(=O)(=O)c1cc(NC(=O)c2ccc(Cl)nc2N2CCCC(F)(F)CC2)ccn1` [Example 138, 6-chloro-2-(4,4-difluoroazepan-1-yl)-N-(2-sulfamoyl-4-pyridyl)pyridine-3-carboxamide] reads 5.8 nM; that for `C[C@@H]1CN(c2nc(C3CCC3)c(Cl)cc2C(=O)Nc2ccnc(S(N)(=O)=O)c2)C[C@H](C)C1(F)F` [Example 169, 5-chloro-6-cyclobutyl-2-((3S,5R)-4,4-difluoro-3,5-dimethylpiperidin-1-yl)-N-(2-sulfamoylpyridin-4-yl)nicotinamide], 6.9 nM; that for `NS(=O)(=O)c1cc(NC(=O)c2cc(CC3CC3)cnc2N2CCCC(F)(F)CC2)ccn1` [Example 46, 5-(cyclopropylmethyl)-2-(4,4-difluoroazepan-1-yl)-N-(2-sulfamoylpyridin-4-yl)nicotinamide], 1 nM.
Turning to `Cc1ccc(C(=O)Nc2ccnc(S(N)(=O)=O)c2)c(N2CCCC(F)(F)CC2)n1` [Example 17, 2-(4,4-difluoroazepan-1-yl)-6-methyl-N-(2-sulfamoylpyridin-4-yl)nicotinamide], the IC50 is 3.1 nM.
The result for `Cc1nc(N2CCCC(F)(F)CC2)c(C(=O)Nc2ccnc(S(N)(=O)=O)c2)cc1Cl` [Example 172, 5-chloro-2-(4,4-difluoroazepan-1-yl)-6-methyl-N-(2-sulfamoylpyridin-4-yl)nicotinamide] reads 0.3 nM; that for `C[C@@H]1CN(c2ncc(C(F)(F)F)cc2C(=O)Nc2ccnc(C(N)=O)c2)C[C@H](C)C1(F)F` [Example 156, 4-(2-((3S,5R)-4,4-difluoro-3,5-dimethylpiperidin-1-yl)-5 (trifluoromethyl)nicotinamido)picolinamide], 58 nM; that for `NS(=O)(=O)c1cc(NC(=O)c2cc(OC(F)(F)F)cnc2N2CCCC(F)(F)CC2)ccn1` [Example 177, 2-(4,4-difluoroazepan-1-yl)-N-(2-sulfamoylpyridin-4-yl)-5-(trifluoromethoxy)nicotinamide], 2.8 nM.
The result for `NS(=O)(=O)c1cc(NC(=O)c2cc(Cl)c(C3CC3)nc2N2CCCC(F)(F)CC2)ccn1` [Example 21, 5-chloro-6-cyclopropyl-2-(4,4-difluoroazepan-1-yl)-N-(2-sulfamoylpyridin-4-yl)nicotinamide] reads 4.5 nM; that for `NS(=O)(=O)c1cc(NC(=O)c2ccc(C3CC3)nc2N2CCCC(F)(F)CC2)ccn1` [Example 22, 6-cyclopropyl-2-(4,4-difluoroazepan-1-yl)-N-(2-sulfamoylpyridin-4-yl)nicotinamide], 3 nM.
The result for `Cc1nc(N2CCC(F)(F)CC2)c(C(=O)Nc2ccnc(S(N)(=O)=O)c2)cc1C1CCC1` [Example 15, 5-cyclobutyl-2-(4,4-difluoropiperidin-1-yl)-6-methyl-N-(2-sulfamoylpyridin-4-yl)nicotinamide] reads 6.5 nM; that for `NS(=O)(=O)c1cc(NC(=O)c2cc(Cl)c(C3CCC3)nc2N2CCCC(F)(F)CC2)ccn1` [Example 23, 5-chloro-6-cyclobutyl-2-(4,4-difluoroazepan-1-yl)-N-(2-sulfamoylpyridin-4-yl)nicotinamide], 2.6 nM; that for `C[C@@H]1CN(c2nc(C3CCC3)ccc2C(=O)Nc2ccnc(S(N)(=O)=O)c2)C[C@@H](C(F)(F)F)O1` (single isomer, unassigned) [Example 167, 6-cyclobutyl-2-((2R,6S or 2S,6R)-2-methyl-6-(trifluoromethyl)morpholino)-N-(2-sulfamoylpyridin-4-yl)nicotinamide], 52 nM.
`NS(=O)(=O)c1cc(NC(=O)c2ccc(C(F)(F)F)nc2N2CCCC(F)(F)CC2)ccn1` [Example 132, 2-(4,4-difluoroazepan-1-yl)-N-(2-sulfamoylpyridin-4-yl)-6-(trifluoromethyl)nicotinamide]: the IC50 stood at 5.3 nM.
The result for `C[C@@H]1CN(c2nc(C3CCC3)c(Cl)cc2C(=O)Nc2ccnc(S(N)(=O)=O)c2)C[C@@H](C(F)(F)F)O1` (single isomer, unassigned) [Example 160, 5-chloro-6-cyclobutyl-2-((2R,6S or 2S,6R)-2-methyl-6-(trifluoromethyl)morpholino)-N-(2-sulfamoylpyridin-4-yl)nicotinamide] reads 9.2 nM; that for `O=C(Nc1cnn(S(=O)(=O)C2CC2)c1)c1cc(C(F)(F)F)cnc1N1CCCC(F)(F)CC1` [Example 36, N-[1-(cyclopropylsulfonyl)-1H-pyrazol-4-yl]-2-(4,4-difluoroazepan-1-yl)-5-(trifluoromethyl)pyridine-3-carboxamide], 147 nM.
To `Cc1nc(N2CCCC(F)(F)CC2)c(C(=O)Nc2ccnc(S(N)(=O)=O)c2)cc1C(F)(F)F` [Example 184, 2-(4,4-difluoroazepan-1-yl)-6-methyl-N-(2-sulfamoylpyridin-4-yl)-5-(trifluoromethyl)nicotinamide] belongs 0.5 nM; to `Cc1nc(N2C[C@@H](C)C(F)(F)[C@@H](C)C2)c(C(=O)Nc2ccnc(S(N)(=O)=O)c2)cc1Cl` [Example 53, 5-chloro-2-[(3S,5R)-4,4-difluoro-3,5-dimethyl-1-piperidyl]-6-methyl-N-(2-sulfamoyl-4-pyridyl)pyridine-3-carboxamide], 0.8 nM.
To `NS(=O)(=O)c1cc(NC(=O)c2cc(C(F)(F)F)cnc2N2CCCC(F)(F)CC2)ccn1` [Example 13, 2-(4,4-difluoroazepan-1-yl)-N-(2-sulfamoylpyridin-4-yl)-5-(trifluoromethyl)nicotinamide] belongs 4.1 nM; to `NS(=O)(=O)c1cc(NC(=O)c2ccc(CC3CC3)nc2N2CCCC(F)(F)CC2)ccn1` [Example 18, 6-(cyclopropylmethyl)-2-(4,4-difluoroazepan-1-yl)-N-(2-sulfamoylpyridin-4-yl)nicotinamide], 0.9 nM.
As to `CC[C@H]1CN(c2ncc(C(F)(F)F)cc2C(=O)Nc2ccnc(S(N)(=O)=O)c2)C[C@H](C(F)(F)F)O1` (single isomer, unassigned) [Example 134, 2-((2S,6R or 2R,6S)-2-ethyl-6-(trifluoromethyl)morpholino)-N-(2-sulfamoylpyridin-4-yl)-5-(trifluoromethyl)nicotinamide], the concentration for half-maximal inhibition (IC50) is 155 nM.
The result for `C[C@@H]1CN(c2nc(C3CCC3)ccc2C(=O)Nc2ccnc(S(N)(=O)=O)c2)C[C@H](C)C1(F)F` [Example 166, 6-cyclobutyl-2-((3S,5R)-4,4-difluoro-3,5-dimethylpiperidin-1-yl)-N-(2-sulfamoylpyridin-4-yl)nicotinamide] reads 13 nM.
To `C[C@H]1CN(c2nc(C3CCC3)ccc2C(=O)Nc2ccnc(S(N)(=O)=O)c2)C[C@H](C(F)(F)F)O1` (single isomer, unassigned) [Example 168, 6-cyclobutyl-2-((2S,6R or 2R,6S)-2-methyl-6-(trifluoromethyl)morpholino)-N-(2-sulfamoylpyridin-4-yl)nicotinamide] belongs 17 nM.
The result for `C[C@@H]1CN(c2ncc(C(F)(F)F)cc2C(=O)Nc2ccnc(S(C)(=O)=O)c2)C[C@H](C)C1(F)F` [Example 147, 2-((3S,5R)-4,4-difluoro-3,5-dimethylpiperidin-1-yl)-N-(2-(methylsulfonyl)pyridin-4-yl)-5-(trifluoromethyl)nicotinamide] reads 22 nM.
